Data on 3 compounds can be found in patent publication US11389469B2, “Targeting NAD+ to treat chemotherapy and radiotherapy induced cognitive impairment, neuropathies and inactivity” (NewSouth Innovations Pty Ltd, priority 2015, dated 2022).

Data set [1] has as its system elderly mice. The following applies: reference [17]; cited from earlier work.
Data set [2] has as its system Male Sprague-Dawley rats. The experiment in a line: von Frey test for mechanical allodynia (pain) after doxorubicin. The data set is classed as in vivo, rat. The method, then: (§1) FIGS. 1A-1D. […] A) Voluntary wheel running, followed by B) the von Frey test for mechanical allodynia (pain) at day 3. At day 8, C) short term spatial memory was assessed using the novel location recognition test. At day 9, D) short term object memory was assessed using the novel object recognition test. n=8, *p<0.05, **p<0.01, ****p<0.0001. Dunn's multiple comparison test, Kruskal Wallis one-way ANOVA.
(§2) In this Example, the strategy is to raise NAD^+ levels during chemotherapy treatment by administering animals with a cell permeable NAD^+ precursor known as nicotinamide mononucleotide (NMN). […] As expected, a single dose of doxorubicin caused neurocognitive defects including reduced voluntary wheel running, increased pain, and reduced short term spatial memory (FIG. 1).

The test system of data set [3] is Male Sprague-Dawley rats. Nature of the data set: Novel location recognition test (short term spatial memory) after doxorubicin. The data set is classed as in vivo, rat. The method, then: as §1, §2
The test system of data set [4] is Male Sprague-Dawley rats. Nature of the data set: Voluntary wheel running after doxorubicin. The data set is classed as in vivo, rat. The method, then: as §1, §2
Data set [5] has as its system muscle mitochondria. The experiment in a line: Mitochondrial respiration in Clarke type electrode. The following applies: aged NMN treated mice, preliminary data FIG. 3C.

As for `NC(=O)c1ccc[n+]([C@@H]2O[C@H](CO)[C@@H](O)[C@H]2O)c1` [NR, Nicotinamide Riboside], in data set [1], the “metabolism and aspects of ageing” value was “improve metabolism and reverse aspects of ageing”.
Regarding `COc1cccc2c1C(=O)c1c(O)c3c(c(O)c1C2=O)C[C@@](O)(C(=O)CO)C[C@@H]3O[C@H]1C[C@H](N)[C@H](O)[C@H](C)O1` [doxorubicin, reference compound], in data set [2] (single i.p. dose of doxorubicin (4 mg/kg), day 3, male SD rats), the “pain (mechanical allodynia, von Frey test), effect of doxorubicin” value is listed as “increased”. In data set [3] (single i.p. dose of doxorubicin (4 mg/kg), day 8, male SD rats), the “short term spatial memory (novel location recognition test), effect of doxorubicin” value is on record as “reduced”. For the same compound, the “voluntary wheel running, effect of doxorubicin” value in data set [4] (single i.p. dose of doxorubicin (4 mg/kg), male SD rats) is “reduced”.
Turning to Nicotinamide Mononucleotide [NMN], the “effect of NMN on doxorubicin-increased pain (mechanical allodynia, von Frey)” value in data set [2] (NMN in drinking water (500 mg/L) plus 200 mg/kg co-administered with doxorubicin 4 mg/kg i.p., day 3) was “reduced the effects of doxorubicin”. For the same compound, the “metabolism and aspects of ageing” value in data set [1] is “improve metabolism and reverse aspects of ageing”. Moreover, the “mitochondrial dysfunction (respiratory capacity of muscle mitochondria)” value in data set [5] is recorded as “reverse”. Moreover, in data set [3] (NMN in drinking water (500 mg/L) plus 200 mg/kg co-administered with doxorubicin 4 mg/kg i.p., day 8), the “effect of NMN on doxorubicin-reduced short term spatial memory (novel location recognition)” value is given as “reduced the effects of doxorubicin”. Moreover, the “effect of NMN on doxorubicin-reduced voluntary wheel running” value in data set [4] (NMN in drinking water (500 mg/L) 24 hr prior and subsequent, plus 200 mg/kg co-administered with doxorubicin 4 mg/kg i.p.) is “reduced the effects of doxorubicin”.
